Reference: US20160340633A1, “PLURIPOTENT STEM CELL EXPANSION AND PASSAGE USING A ROCKING PLATFORM BIOREACTOR” (General Electric Company, priority 2015, published 2016)

Tested on: CT2 human embryonic stem cells
Assay: Expansion of slicer-passaged pluripotent stem cell aggregates cultured with or without Y27632 ROCK inhibitor
Type: cell-based
Method: In one example, aggregate formation and cell expansion was measured after passage with Accutase™ or with the square grid or hexagon grid slicer. After passaging, CT2 human embryonic stem cells were seeded in 6 well plates in 2 ml mTeSR1 at either 4×10̂5 cells per mL or 1.5×10̂6 cells per mL, with or without 10 uM Y27632 ROCK inhibitor. The plates were maintained on a Boekel Scientific Rocker II 260350 rocker platform in a standard cell culture incubator at 37 degrees C., 5% CO2, with culture conditions of 20 rocks per minute at a 15 degree rock angle. Aggregates formed from the accutased cells after overnight culture. Each day, the spent mTeSR1 was completely removed and replaced with fresh mTeSR1 without Y27632 ROCK inhibitor. On day 4, the aggregates were recovered, dissociated with Accutase™ and enumerated using a Nucleocounter NC200. […]
Aggregates were passed across the slicer in a flow stream consisting of 100 mL to 1 L volumes. […] The cell aggregate concentration used to pass through the slicer was determined to influence the recovery of sliced cell aggregates at high viability. […] It was determined that slicing of cell aggregate concentrations below about 3×10̂6 cells per mL produced higher viability samples with higher recovery than cell concentrations greater than about 3×10̂6 cells per mL. […]

C[C@@H](N)[C@H]1CC[C@H](C(=O)Nc2ccncc2)CC1 [Y27632 ROCK inhibitor, Y-27632]
expansion rates of slicer passaged aggregates cultured with or without Y27632 ROCK inhibitor (10 uM at seeding, 4×10^5 or 1.5×10^6 cells per mL, 6 well plates, rocking, counted day 4, square or hexagon grid slicer): similar | requirement of Y27632 ROCK inhibitor for expansion of sliced pluripotent stem cell aggregates (sliced aggregates in mTeSR1, optionally 1 to 10 uM, unlike enzymatically passaged aggregates): not required
